The record followed here is patent US12569563B2, “Selective HDAC6 degraders and methods of use thereof” (DANA-FARBER CANCER INSTITUTE, INC., priority 2019, dated 2026).

One test addresses T1, HDAC10 (Homo sapiens, UniProt Q969S8).
T1 construct: purchased Reaction Biology
T1 sequence (Q969S8 1-669): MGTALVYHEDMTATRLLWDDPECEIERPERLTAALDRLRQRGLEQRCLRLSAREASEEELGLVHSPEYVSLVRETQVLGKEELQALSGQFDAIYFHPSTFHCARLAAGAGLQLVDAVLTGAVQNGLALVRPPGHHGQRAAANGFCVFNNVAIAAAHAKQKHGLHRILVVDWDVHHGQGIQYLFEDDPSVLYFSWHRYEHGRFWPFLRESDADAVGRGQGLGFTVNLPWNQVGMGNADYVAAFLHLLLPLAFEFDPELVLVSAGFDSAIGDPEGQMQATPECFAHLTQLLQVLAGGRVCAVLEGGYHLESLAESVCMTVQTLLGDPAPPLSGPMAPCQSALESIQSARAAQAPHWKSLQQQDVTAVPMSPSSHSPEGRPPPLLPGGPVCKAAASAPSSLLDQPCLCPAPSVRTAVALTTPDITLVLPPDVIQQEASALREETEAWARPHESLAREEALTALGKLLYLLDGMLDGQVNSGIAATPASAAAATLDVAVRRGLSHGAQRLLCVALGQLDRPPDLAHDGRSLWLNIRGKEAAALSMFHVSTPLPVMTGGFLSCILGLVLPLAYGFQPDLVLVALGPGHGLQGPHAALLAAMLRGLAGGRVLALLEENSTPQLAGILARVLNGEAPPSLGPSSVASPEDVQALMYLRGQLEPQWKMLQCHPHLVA
The experiment in a line: HDAC assay from Reaction Biology, fluorogenic substrate. The test is classed as biochemical. The following applies: 10-dose response curve; read-out: Compound IC50 HDAC10. How it is done:
Compounds 1 and 3 were tested in a HDAC assay from Reaction Biology® against 10 different HDACs.
Base Reaction buffer: 50 mM Tris-HCl, pH8.0, 137 mM NaCl, 2.7 mM KCl, and 1 mM MgCl2,
Add fresh: 1 mg/ml BSA, 1% DMSO
Fluorogenic HDAC General Substrate (HDAC1, HDAC2, HDAC3, HDAC6, HDAC10, and HDAC11): 50 μM, Arg-His-Lys-Lys(Ac)-AMC
• (HDAC8 only substrate: 50 μM, Arg-His-Lys(Ac)-Lys(Ac))-AMC Class2A Substrate (HDAC4, HDAC5, HDAC7, and HDAC9): Boc-Lys(trifluoroacetyl)-AMC For SIRTs 1-3, general Class1 HDAC substrate and 500 μM NAD+ For SIRT5, Ac-Lys-succ and 500 μM NAD+ Reaction Procedure Deacetylation Step • 1. Delivered 2× enzyme in wells of reaction plate except in the control wells and added buffer to control wells. • 2. Delivered compounds in 100% DMSO into the enzyme mixture by Acoustic technology (Echo550; nanoliter range). Spin down and pre-incubation. • 3. Delivered 2× Substrate Mixture (Fluorogenic HDAC Substrate and co-factor if applicable) in all reaction wells to initiate the reaction. Spin and shake. • 4. Incubated for 30 min for Class 2A, 1 hr for HDAC1, 2, 3, and 6, and 2 hr for the rest of HDACs and SIRTs at 30° C. with seal. Development Step • 5. Added Developer with Trichostatin A (or Nicotinamide for SIRTs) to stop the reaction and to generate fluorescent color. • 6. The fluorescence that was generated was detected with excitation (Ex) at […] and emission (Em) at 460 nM by the EnVision Multilabel Plate Reader (PerkinElmer®, Santa Clara, CA, USA). • 7. IC50 values, presented in Table 1, were derived from a 10-dose response curve.

A further test deals with T2, CRBN (Homo sapiens, UniProt Q96SW2).
T2 construct: endogenous in cells; host or cells: Flp-In 293 cells stably expressing BRD4BD2-eGFP-P2A-mCherry
The experiment in a line: Cellular CRBN engagement assay (competition with dBET6, BRD4BD2-eGFP reporter). Type of test: cell-based. The following applies: Flip-In 293 BRD4BD2-eGFP cells, 100 nM dBET6, 5 h. An excerpt: The cellular CRBN engagement assay measures the cellular binding affinity which is the combination of the compound's cell permeability and their binding affinity to CRBN. This is done by measuring the ability of thalidomide-based degrader molecules to compete with pan-BET bromodomain degrader dBET6 (Nowak et al., Nat. Chem. Biol. 14:706-714 (2018)) for CRBN binding in cells. If no degrader compound is present in the cell, BRD4BRD2-eGFP is degraded by dBET6 via the proteasome system. […]
Cells were seeded at 30-50% confluency in either 24, 48 or 96 well plates (3524, 3548, 3596 respectively, Costar) a day before compound treatment. The inventive compounds were titrated in the presence of 100 nM dBET6 and then were incubated with cells for 5 h following trypsinization and resuspension in DMEM media, transferred into 96-well plates (353910, Falcon®) and analyzed by flow cytometer (Guava® easyCyte™ HT, Millipore®). Signal from at least 3000 events per well was acquired and the eGFP and mCherry florescence monitored. Data was analyzed using FlowJo® (FlowJo®, LCC). Forward and side scatter outliers, frequently associated with cell debris, were removed leaving >90% of total cells, followed by removal of eGFP and mCherry signal outliers, leaving 88-90% of total cells creating the set used for quantification. […]

Take `CN(C(=O)CCCCCCCNc1cccc2c1C(=O)N(C1CCC(=O)NC1=O)C2=O)c1ccc(NC(=O)CCCCCCC(=O)NO)cc1` (centres unmarked) [Compound 3, N^1-(4-(8-((2-(2,6-dioxopiperidin-3-yl)-1,3-dioxoisoindolin-4-yl)amino)-N-methyloctanamido)phenyl)-N^8-hydroxyoctanediamide]: the figures for the IC50 at HDAC10 and at CRBN were 6.58 µM and 1.63 µM, respectively.
